One experiment addresses T1, UDPGT1A1 (Homo sapiens, UniProt P22309).
T1 construct: purchased SigmaAldrich U7254
T1 sequence (P22309 26-533): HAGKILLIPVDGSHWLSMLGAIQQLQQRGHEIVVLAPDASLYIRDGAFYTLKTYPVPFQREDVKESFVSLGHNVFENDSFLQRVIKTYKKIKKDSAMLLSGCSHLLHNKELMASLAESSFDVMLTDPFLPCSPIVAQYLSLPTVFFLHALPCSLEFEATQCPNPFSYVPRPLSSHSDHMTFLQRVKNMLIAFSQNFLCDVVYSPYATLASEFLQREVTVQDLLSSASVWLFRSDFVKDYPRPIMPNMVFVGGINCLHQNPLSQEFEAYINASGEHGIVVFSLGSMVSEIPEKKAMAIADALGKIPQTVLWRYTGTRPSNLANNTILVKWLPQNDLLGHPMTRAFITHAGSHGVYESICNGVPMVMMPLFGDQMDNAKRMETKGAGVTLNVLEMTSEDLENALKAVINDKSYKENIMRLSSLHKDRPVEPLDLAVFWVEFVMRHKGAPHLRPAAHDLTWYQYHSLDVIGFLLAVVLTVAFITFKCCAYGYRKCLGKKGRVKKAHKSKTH
In words: Inhibition of bilirubin glucuronidation by UDPGT. In kind it is biochemical. From the text:
UDP-glucuronosyltransferase 1A1 isozenzyme (Cat. #U7254), uridine-5′-diphosphoglucuronic acid (UDPGA, #U5625), bilirubin (B), naringenin (N5893), octyl gallate (#48700) and quercetin (Q0125) were purchased from SigmaAldrich (St. Louis, Mo.). Bilirubin dimethyl ester (#B612-9), biliverdin dimethyl ester (#B610-9), biliverdin hydrocholoride (#B655-9), mesobilirubin (#M588-9), urobilin hydrochloride (#U590-1), and stercobilin hydrochloride (#S594-9) were purchased from Frontier Scientific Inc. (Logan, Utah).
The enzyme activity assay method was based on those of Adlard and Lathe (Biochem. J., 1970, 119:437-445). Incubation mixtures (total vol. 1.25 ml, pH 7.9) were prepared in tubes kept in ice and had the following composition: bilirubin (0.1 mM), UDP-glucuronic acid (0.25 mM), serum (5.8%, v/v), Mg2+ (5.0 mM), microsomal preparation (0.5-1.5 mg of protein), 10 mM tris-0.14 M KCl (pH 8.0), and 10% (v/v) dimethylsulphoxide. Incubation (10 min, 37° C.) was carried out with shaking (100 cycles/min). After incubation, tubes were placed in ice-water (5 min) and direct-reacting bilirubin was determined. All incubations were done in duplicate. Enzyme activity was expressed as μg of bilirubin conjugated/h per mg of protein. Differences from controls of more than 10% were regarded as significant.

In another experiment the test system is cyclooxygenase (COX). In words: Cyclooxygenase (COX) inhibition. In kind it is biochemical, human. The following applies: concentration of 10 mg/L (FIG. 4). On the procedure:
The activity of COX was determined by the procedure described in Assay Design's Enzyme Immunometric Assay (EIA) kit (Assay Design Inc., TiterZyme EIA cat.#900-094). Briefly, the kit uses a monoclonal antibody to human COX-II immobilized on a microtiter plate to bind the human COX in the standard or sample. After a short incubation the excess standard or sample is washed out and a rabbit polyclonal antibody to human COX labeled with the enzyme. Horseradish peroxidase is added. This labeled antibody binds to the human COX captured on the plate. After a short incubation the excess labeled antibody is washed out and substrate is added. The substrate reacts with the labeled antibody bound to the human COX captured on the plate. After a short incubation, the enzyme reaction is stopped and the color generated is read at 450 nm. The measured optical density is directly proportional to the concentration of human COX.
Purified cyclooxygenases (COX) were obtained from Kayman Chemical Company and used to examine the inhibitory effect of bilirubin with arachidonic acid as the substrate. High purity of bilirubin (SigmaAldrich #B4126), biliverdin (Frontier Scientific Inc., Cat. B655-9) and hemin (SigmaAldrich, #51280) were used as received.

The target of another experiment is T2, HMG-CoA reductase (Homo sapiens, UniProt P04035).
T2 construct: from tissue; host or cells: liver microsomes
T2 sequence (P04035 1-888): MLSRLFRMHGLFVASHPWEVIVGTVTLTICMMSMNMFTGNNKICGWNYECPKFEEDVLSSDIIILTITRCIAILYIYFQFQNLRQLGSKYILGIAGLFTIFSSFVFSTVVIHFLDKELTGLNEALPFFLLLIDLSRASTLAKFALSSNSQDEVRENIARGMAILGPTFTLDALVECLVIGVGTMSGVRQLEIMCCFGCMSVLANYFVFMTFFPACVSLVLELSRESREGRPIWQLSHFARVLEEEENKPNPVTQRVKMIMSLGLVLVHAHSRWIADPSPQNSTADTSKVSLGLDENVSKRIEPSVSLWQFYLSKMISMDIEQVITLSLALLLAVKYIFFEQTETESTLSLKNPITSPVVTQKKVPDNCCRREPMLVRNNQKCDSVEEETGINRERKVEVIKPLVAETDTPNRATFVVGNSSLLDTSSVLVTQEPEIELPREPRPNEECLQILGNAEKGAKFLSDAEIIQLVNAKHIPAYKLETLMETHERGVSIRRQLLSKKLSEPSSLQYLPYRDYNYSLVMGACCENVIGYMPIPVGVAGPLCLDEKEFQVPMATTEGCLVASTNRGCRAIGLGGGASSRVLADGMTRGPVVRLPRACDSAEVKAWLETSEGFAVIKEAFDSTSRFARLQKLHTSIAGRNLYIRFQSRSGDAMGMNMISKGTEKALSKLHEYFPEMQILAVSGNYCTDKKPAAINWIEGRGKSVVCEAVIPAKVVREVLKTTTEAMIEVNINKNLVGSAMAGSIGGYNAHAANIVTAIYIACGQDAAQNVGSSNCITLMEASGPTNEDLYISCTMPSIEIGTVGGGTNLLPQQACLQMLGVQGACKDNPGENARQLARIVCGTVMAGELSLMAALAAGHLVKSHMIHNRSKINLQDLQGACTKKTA
In words: HMG-CoA reductase assay in liver microsomes. The settings on record: moderately high concentrations; 30 mg/L (FIG. 6). Type of experiment: biochemical. On the procedure: Liver microsomes, which are used to investigate cholesterol metabolism, were prepared as follows. Liver was homogenized in 50 mM Tris HCl buffer (pH 7.4), containing 0.3 M sucrose, 10 mM DTT, and 10 mM EDTA. The homogenate was centrifuged at 20,000×g for 15 min, and the supernatant was centrifuged at 100,000×g for 60 min. The resulting microsomal fraction was suspended in 3 ml of 0.1 M potassium phosphate buffer (pH 7.4), containing 1 mM EDTA and 5 mM DTT. Aliquots were immediately frozen in liquid nitrogen and stored at −20° C. until analysis.
Assay of HMG-CoA reductase. Microsomal suspensions of […], containing 5 mg protein, were preincubated for 5 min at 37° C. with […] of 0.1 M potassium phosphate buffer (pH 7.4), containing 1 mM EDTA and 12 mM glucose-6-phosphate. The assay was initiated by adding […] of cofactor-substrate solution (0.1 mM HMG-CoA, 3 mM MADPH, and 2 U/ml glucose-6-phosphate dehydrogenase). The incubation was performed at 37+ C. for 30 min and was terminated by the addition of […] of 1 M MaOH. After lactonization, the mevalonolactone was separated by thin layer chromatography. The eluate, which contained mevalonolactone, was collected in a scintillation vial. The radioactivity was then counted in a Packard 3320 scintillation spectrometer.

[1] abbreviates: Table 4, bilirubin 0.1 mM as substrate, read-out: Apparent Ki.
Setting [2] is: read-out: inhibition constant (Ki).

The text below walks through data of US20080070971A1, “Medical Use of Bilirubin and its Structural Analogues” (priority 2006, published 2008).

A word on the IC50: it is the concentration that gives 50% inhibition.

Like-named read-outs stand apart in the source and are kept apart here.

Turning to “(±)-2,3-Dihydro-5,7-dihydroxy-2-(4-hydroxyphenyl)-4H-1-benzopyran-4-one; 4′,5,7-Trihydroxyflavanone [Naringenin]”, the Ki turned out to be 4.8 µM at UDPGT1A1 (setting [1]) and 5 µM on UDPGT1A1 (setting [2]). Moreover, the IC50 at UDPGT1A1 (under the testing conditions) is around 16 µM.
As to `C=CC1=C(C)C(=O)N/C1=C\c1[nH]c(Cc2[nH]c(/C=C3\NC(=O)C(C)=C3C=C)c(C)c2CCC(=O)O)c(CCC(=O)O)c1C` [Bilirubin XIIIα], on UDPGT1A1 (setting [1]), the Ki was found to be 1.7 µM.
Regarding hemin, in the experiment with cyclooxygenase (COX), the “reducing COX activity (comparison)” value is recorded as “effective in reducing COX activity”.
Take `C=CC1=C(C)/C(=C/C2=NC(=C/c3[nH]c(/C=C4\NC(=O)C(C)=C4C=C)c(C)c3CCC(=O)O)/C(CCC(=O)O)=C2C)NC1=O` [biliverdin, 2,7,13,17-tetramethyl-1,19-dioxo-3,18-divinyl-1,19,22,24-tetrahydro-21H-biline-8,12-dipropanoic acid]: the “inhibition of HMG-CoA reductase activity (comparison)” value against HMG-CoA reductase was “strongly inhibit”. In addition, the Ki on UDPGT1A1 (setting [1]) stood at 19.9 µM.
With `CCCCCCCCOC(=O)c1cc(O)c(O)c(O)c1` [Octyl gallate ester], the Ki at UDPGT1A1 (setting [1]) turned out to be 7.6 µM.
Same read-out and setting: with `C=CC1=C(C)/C(=C/c2[nH]c(Cc3[nH]c(/C=C4\NC(=O)C(C=C)=C4C)c(C)c3CCC(=O)O)c(CCC(=O)O)c2C)NC1=O` [Bilirubin IIIα] the figure was 1.5 µM; with `CCC1=C(C)/C(=C/c2[nH]c(Cc3[nH]c(/C=C4\NC(=O)C(C)=C4CC)c(C)c3CCC(=O)O)c(CCC(=O)O)c2C)NC1=O` [Mesobilirubin IXα, 3,18-diethyl-2,7,13,17-tetramethyl-1,19-dioxo-1,19,22,24-tetrahydro-21H-biline-8,12-dipropanoic acid], 2.3 µM.
On to `C=CC1=C(C)C(OC)N/C1=C\c1[nH]c(Cc2[nH]c(/C=C3\NC(OC)C(C=C)=C3C)c(C)c2CCC(=O)O)c(CCC(=O)O)c1C` (stereo not shown) [DimethoxybilirubinIXα], for which the results for the Ki on UDPGT1A1 (setting [1]) and on UDPGT1A1 (setting [2]) were 1.3 µM and around 1 µM, respectively.
Turning to `C=CC1=C(C)c2cc3[n-]c(cc4[n-]c(cc5nc(cc1n2)C(C)=C5C=C)c(C)c4CCC(=O)O)c(CCC(=O)O)c3C.O.[Fe+2]` [Hematin, reference compound], the “inhibition of HMG-CoA reductase activity (comparison)” value against HMG-CoA reductase is recorded as “strongly inhibit”.
